The text below walks through data of PMC9230201, “Sustained Consumption of a Decaffeinated Green Coffee Nutraceutical Has Limited Effects on Phenolic Metabolism and Bioavailability in Overweight/Obese Subjects” (Nutrients, 2022).

A short description of series [1]: Urinary excretion of phenolic metabolites after intake of the GCPE nutraceutical. The conditions noted are these: for Cumulative urinary excretion, Total 0–24 h / Urinary excretion: urine; for Cumulative urinary excretion, Total 0–24 h: mean ± SEM, n = 9.
Method: (§1) Participants attended the Human Nutrition Unit (HNU) at the Institute of Food Science, Technology and Nutrition (ICTAN-CSIC) on two consecutive days at the beginning of the intervention (week 0) and also on two consecutive days at the end of the study, after consuming daily two doses of the GCPE nutraceutical, providing 600 mg/d phenols, during two months (week 8). […] A licensed health care professional placed an intravenous catheter in the subjects′ nondominant arm and collected a fasting blood sample (baseline, 0 h). Then, subjects drank the soluble GCPE nutraceutical dissolved in 200 mL of water. […] On the sampling days, volunteers remained at the HNU, where a (poly)phenol-free diet was provided. Half an hour after consuming the nutraceutical, volunteers ate a breakfast consisting of ham, cheese, white bread, and a yogurt. Lunch (paella, bread, and yogurt) and an afternoon snack (muffin and yogurt) were eaten 5 and 9 h, respectively, after consuming the nutraceutical. Water and isotonic beverages were freely available. […] The same protocol was followed during visits at the end of the 8-week intervention. On each occasion, two days before each visit to the HNU, subjects consumed a low (poly)phenol diet free of foods containing hydroxycinnamates such as coffee, herbal teas, red wine, artichokes, whole grain cereals, vegetables, fruits and fruit juices, and dried fruits. Only banana, watermelon, cantaloupes, and potatoes were allowed.
(§2) Blood samples were immediately centrifuged (10 min, 3000 rpm, 4 °C) to obtain plasma. […] All biological samples were stored at −80 °C until analysis.
(§3) To extract plasma metabolites, 10 µL of 50% (v/v) aqueous formic acid, and 900 µL cold acetonitrile containing 50 µL of 10% (w/v) ascorbic acid were added to 400 µL defrosted plasma. Samples were vortexed and centrifuged (14,000 rpm, 10 min, 4 °C), repeating the extraction and combining the two supernatants, which were reduced to dryness under nitrogen [13]. Dried samples were resuspended in 150 µL of 0.1% aqueous formic acid (containing 10% acetonitrile acidified with 0.1% formic acid), centrifuged (15 min, 14,000 rpm, 4 °C), and the supernatant collected. Urine samples were diluted 1:1 with Milli-Q water and centrifuged (14,000 rpm, 20 min, 4 °C) prior to analysis. Phosphate-buffered saline (3 mL) was added to a representative 300 mg sample of thawed feces, homogenized in an ultrasound bath during 10 min, centrifuged (14,000 rpm, 20 min, 4 °C), and the supernatants collected.
(§4) Mobile phase A was 0.1% formic acid in Milli-Q water, and mobile phase B was acetonitrile containing 0.1% formic acid at a 0.3 mL/min flow rate. […] Metabolites were identified based on their retention time using authentic standards when possible. […] Urine concentration of excreted metabolites was normalized to the total volume excreted in each studied interval.
(§5) Plasma (30 µL), urine (5 µL) and fecal extracts (5 µL) were filtered through 0.45 µm
(§6) cellulose-acetate membrane filters and injected into an Agilent 1200 series LC system
(§7) ESI-Jet Stream Technology (Agilent Technologies). A reverse-phase Ascentis Express
(§8) C18 (15 cm x 3 mm, 2.7 µm) column (Sigma-Aldrich Quimica, Madrid), preceded by a
(§9) phase A was 0.1% formic acid in Milli-Q water, and mobile phase B was acetonitrile
(§10) containing 0.1% formic acid at a 0.3 mL/min flow rate. The gradient started with 10% B
(§11) at 0 min, 30% B at 10 min, 40% B at 15 min, reaching 50% B at 20 min. The starting
(§12) gradient was then re-established in 2 min and maintained for 8 min to re-equilibrate the
Series [2] is described as follows: Plasma pharmacokinetics of phenolic metabolites after intake of the GCPE nutraceutical (LC-MS-QToF). The conditions noted are these: for Cmax: mean ± SEM, n = 9; for AUC(0-t) / Tmax: 300 mg hydroxycinnamic acids; for AUC(0-t): AUC0–24h; for Tmax: Tmax (h) or Range.
Method: Participants attended the Human Nutrition Unit (HNU) at the Institute of Food Science, Technology and Nutrition (ICTAN-CSIC) on two consecutive days at the beginning of the intervention (week 0) and also on two consecutive days at the end of the study, after consuming daily two doses of the GCPE nutraceutical, providing 600 mg/d phenols, during two months (week 8). On each occasion, on the first visit day (Figure 1), subjects arrived at the HNU after an overnight (12 h) fast and provided a urine sample. A licensed health care professional placed an intravenous catheter in the subjects′ nondominant arm and collected a fasting blood sample (baseline, 0 h). Then, subjects drank the soluble GCPE nutraceutical dissolved in 200 mL of water. Subsequently, blood samples were collected in EDTA-coated tubes at 0.5, 1, 1.5, 2, 3, 4, 6, 8, 10, and 11 h. On the sampling days, volunteers remained at the HNU, where a (poly)phenol-free diet was provided. Half an hour after consuming the nutraceutical, volunteers ate a breakfast consisting of ham, cheese, white bread, and a yogurt. Lunch (paella, bread, and yogurt) and an afternoon snack (muffin and yogurt) were eaten 5 and 9 h, respectively, after consuming the nutraceutical. Water and isotonic beverages were freely available. Volunteers were instructed to eat a (poly)phenol-free dinner that night and to attend the HNU on the next day after a 12 h fast. Then, a final blood sample was obtained from the antecubital vein 24 h after consuming the nutraceutical. The same protocol was followed during visits at the end of the 8-week intervention. On each occasion, two days before each visit to the HNU, subjects consumed a low (poly)phenol diet free of foods containing hydroxycinnamates such as coffee, herbal teas, red wine, artichokes, whole grain cereals, vegetables, fruits and fruit juices, and dried fruits. Only banana, watermelon, cantaloupes, and potatoes were allowed.
as §2
To extract plasma metabolites, 10 µL of 50% (v/v) aqueous formic acid, and 900 µL cold acetonitrile containing 50 µL of 10% (w/v) ascorbic acid were added to 400 µL defrosted plasma. Samples were vortexed and centrifuged (14,000 rpm, 10 min, 4 °C), repeating the extraction and combining the two supernatants, which were reduced to dryness under nitrogen [13]. Dried samples were resuspended in 150 µL of 0.1% aqueous formic acid (containing 10% acetonitrile acidified with 0.1% formic acid), centrifuged (15 min, 14,000 rpm, 4 °C), and the supernatant collected.
A reverse-phase Ascentis Express C18 (15 cm × 3 mm, 2.7 µm) column (Sigma-Aldrich Quimica, Madrid, Spain), preceded by a Supelco 55215-U guard column (3 mm × 5 mm, 2.7 µm), was used for separation. Mobile phase A was 0.1% formic acid in Milli-Q water, and mobile phase B was acetonitrile containing 0.1% formic acid at a 0.3 mL/min flow rate. […] Metabolites were identified based on their retention time using authentic standards when possible.
Series [3] can be described thus: Fecal excretion of phenolic metabolites after intake of the GCPE nutraceutical. The conditions noted are these: feces.
Method: as §1, §2, §3, §4, §5, §6, §7, §8, §9, §10, §11, §12
[4] abbreviates: human, oral, week 0, first peak where biphasic.
Where [5] appears, read: human, oral, week 8, first peak where biphasic.
Where [6] appears, read: human, oral, 300 mg, Cmax, week 0, GCPE nutraceutical with 300 mg hydroxycinnamic acids.
The mark [7] stands for this setting: human, oral, 300 mg, Cmax, week 8, GCPE nutraceutical with 300 mg hydroxycinnamic acids.

As usually defined, the Cmax is the peak of the concentration-time curve. By AUC(0-t) is commonly meant the area under the concentration-time curve up to a stated or last time point. Broadly, the Tmax is the time at which the peak concentration occurs.

Consider `COc1cc(/C=C/C(=O)O[C@@H]2C[C@@](O)(C(=O)O)C[C@@H](O)[C@@H]2O)ccc1O` [5-Feruloylquinic acid], for which the “Cumulative urinary excretion, Total 0–24 h” value (“Cumulative urinary excretion” below) in series [1] (week 0) and in series [1] (week 8) was 1.5 ± 0.2 µmol in each case. Besides, the Amount excreted in urine, 0- 3 h is 0.8 ± 0.2 µmol in series [1] (week 0, interval 0–3 h) and 0.8 ± 0.1 µmol in series [1] (week 8, interval 0–3 h). Also, the Amount excreted in urine, 3-6 h in series [1] (week 0, interval 3–6 h) amounted to 0.5 ± 0.1 µmol; in series [1] (week 8, interval 3–6 h) it was 0.39 ± 0.07 µmol. In addition, the Amount excreted in urine, 6-9 h in series [1] (week 0, interval 6–9 h) is 0.13 ± 0.04 µmol; in series [1] (week 8, interval 6–9 h) it was 0.2 ± 0.04 µmol. In addition, the Amount excreted in urine, 9-11 h in series [1] (week 0, interval 9–11 h) was 0.03 ± 0.01 µmol; in series [1] (week 8, interval 9–11 h), 0.05 ± 0.03 µmol. Besides, the Amount excreted in urine, 11-24 h in series [1] (week 0, interval 11–24 h) worked out at 0.09 ± 0.01 µmol; in series [1] (week 8, interval 11–24 h), 0.08 ± 0.02 µmol. Besides, the “AUC0–24h” value in series [2] (week 0) was determined as 0.09 ± 0.02 µM/min; in series [2] (week 8) it was 0.08 ± 0.02 µM/min. The Cmax in series [2] (week 0, GCPE nutraceutical with 300 mg hydroxycinnamic acids) turned out to be 32 ± 4 nM; in series [2] (week 8, GCPE nutraceutical with 300 mg hydroxycinnamic acids), 34 ± 5 nM. The “Tmax (h) or Range” value came out at 0.9 ± 0.1 h in series [2] (week 0, first peak where biphasic) and 0.9 ± 0.1 h in series [2] (week 8, first peak where biphasic). In addition, the “Amount of fecal metabolite excreted at 0 h” value (“Amount … at 0 h” below) was found to be 0.0009 ± 0.0007 µmol/g in series [3] (week 0, mean ± SEM, n = 9) and 0.002 ± 0.002 µmol/g in series [3] (week 8). Also, the “Amount of fecal metabolite excreted at 24 h” value (“Amount … at 24 h” for short) in series [3] (week 0) is listed as 0.002 ± 0.001 µmol/g; in series [3] (week 8), 0.0003 ± 0.0003 µmol/g.

Turning to `O=C(O)CCc1ccc(O)c(O)c1` [DHCA, 3-(3′,4′-Dihydroxyphenyl)propanoic acid], the Urinary excretion in series [1] (week 0) was 16 µmol/24 h; in series [1] (week 8), 31 µmol/24 h. Besides, the “Cumulative urinary excretion” value in series [1] (week 0) was 16 ± 2 µmol; in series [1] (week 8) it was 31 ± 5 µmol. For the same molecule, the Amount excreted in urine, TOTAL in series [1] (week 0, Table S5 total) stood at 16 ± 2 µmol; in series [1] (week 8, Table S6 total), 31 ± 5 µmol. Besides, the Amount excreted in urine, 0- 3 h in series [1] (week 0, interval 0–3 h) amounted to 0.5 ± 0.1 µmol; in series [1] (week 8, interval 0–3 h), 1 ± 0.4 µmol. Besides, the Amount excreted in urine, 3-6 h in series [1] (week 0, interval 3–6 h) came out at 0.37 ± 0.09 µmol; in series [1] (week 8, interval 3–6 h), 1.4 ± 0.4 µmol. For the same molecule, the Amount excreted in urine, 6-9 h came to 2.3 ± 0.8 µmol in series [1] (week 0, interval 6–9 h) and 3.8 ± 0.9 µmol in series [1] (week 8, interval 6–9 h). Besides, the Amount excreted in urine, 9-11 h amounted to 2.7 ± 0.6 µmol in series [1] (week 0, interval 9–11 h) and 3.1 ± 0.8 µmol in series [1] (week 8, interval 9–11 h). The Amount excreted in urine, 11-24 h in series [1] (week 0, interval 11–24 h) is 7 ± 1 µmol; in series [1] (week 8, interval 11–24 h), 6 ± 2 µmol. The Amount excreted in urine, 0 h in series [1] (week 8, 0 h (before intake on sampling day)) was found to be 15 ± 4 µmol. Moreover, the AUC(0-t) in series [2] (human, oral, week 0) was determined as 2 ± 0.6 µM·h; in series [2] (human, oral, week 8), 2.1 ± 0.5 µM·h. In addition, the Tmax is 10.2 ± 0.3 h in series [2] (setting [4]) and 9.4 ± 0.5 h in series [2] (setting [5]). The Cmax in series [2] (setting [6]) worked out at 220 ± 60 nM; in series [2] (setting [7]) it was 220 ± 50 nM. For the same molecule, the “Amount … at 0 h” value in series [3] (week 0, mean ± SEM, n = 9) worked out at 0.011 ± 0.007 µmol/g; in series [3] (week 8), 0.005 ± 0.002 µmol/g. Moreover, the “Amount … at 24 h” value amounted to 0.008 ± 0.006 µmol/g in series [3] (week 0) and 0.0001 ± 0.0001 µmol/g in series [3] (week 8).

As to `COc1cc(CCC(=O)O)ccc1O` [DHFA, 3-(4′-Hydroxy-3′-methoxyphenyl)propanoic acid], the entries for the “Cumulative urinary excretion” value in series [1] (week 0) and in series [1] (week 8) were 0.5 ± 0.2 µmol and 1.1 ± 0.4 µmol, respectively. In addition, the Amount excreted in urine, 0- 3 h amounted to 0.03 ± 0.02 µmol in series [1] (week 0, interval 0–3 h) and 0.08 ± 0.07 µmol in series [1] (week 8, interval 0–3 h). Besides, the Amount excreted in urine, 3-6 h was found to be 0.007 ± 0.007 µmol in series [1] (week 0, interval 3–6 h) and 0.03 ± 0.02 µmol in series [1] (week 8, interval 3–6 h). In addition, the Amount excreted in urine, 6-9 h came to 0.08 ± 0.04 µmol in series [1] (week 0, interval 6–9 h) and 0.07 ± 0.05 µmol in series [1] (week 8, interval 6–9 h). Also, the Amount excreted in urine, 9-11 h in series [1] (week 0, interval 9–11 h) is 0.05 ± 0.02 µmol; in series [1] (week 8, interval 9–11 h), 0.09 ± 0.04 µmol. Moreover, the Amount excreted in urine, 11-24 h in series [1] (week 0, interval 11–24 h) was determined as 0.11 ± 0.05 µmol; in series [1] (week 8, interval 11–24 h), 0.07 ± 0.04 µmol. The AUC(0-t) in series [2] (human, oral, week 0) was 2.2 ± 0.6 µM·h; in series [2] (human, oral, week 8), 1.8 ± 0.3 µM·h. Further, the Tmax turned out to be 7.6 ± 0.4 h in series [2] (setting [4]) and 8.4 ± 0.6 h in series [2] (setting [5]). Besides, the figures for the Cmax in series [2] (setting [6]) and in series [2] (setting [7]) were 300 ± 100 nM and 250 ± 60 nM, respectively. For the same molecule, the “Amount … at 0 h” value in series [3] (week 0, mean ± SEM, n = 9) is on record as 0.013 ± 0.004 µmol/g; in series [3] (week 8) it was 0.018 ± 0.003 µmol/g. Moreover, the “Amount … at 24 h” value in series [3] (week 0) is on record as 0.019 ± 0.007 µmol/g; in series [3] (week 8), 0.014 ± 0.003 µmol/g.
